Key:
Prothrombin = Prothrombin (Homo sapiens, UniProt P00734); experiment: Inhibition of Coagulation factor II
[1] = Inhibition of factor Xa
Serine protease 1 = Serine protease 1 (Homo sapiens, UniProt P07477); experiment: Inhibitory activity against trypsin
Rattus norvegicus = experiment: Effect on thrombus weight in rat vena cava thrombosis model (iv administration); assay type: functional

Chain of Serine protease 1 (P07477 whole entry): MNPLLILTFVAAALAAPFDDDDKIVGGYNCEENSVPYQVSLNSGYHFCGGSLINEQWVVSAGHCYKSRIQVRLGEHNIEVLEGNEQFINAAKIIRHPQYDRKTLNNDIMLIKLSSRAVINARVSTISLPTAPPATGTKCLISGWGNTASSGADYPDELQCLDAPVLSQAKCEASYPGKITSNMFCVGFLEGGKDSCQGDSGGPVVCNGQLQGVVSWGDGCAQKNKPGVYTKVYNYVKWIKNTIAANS

Row | SMILES | Ki (Prothrombin) | Ki [1] | Ki (Serine protease 1) | ID50 (Rattus norvegicus)
1 | N=C(N)c1ccc2c(ccn2CC(=O)N2CCC(Cc3cccc(F)c3)CC2)c1 | 24 nM | 11000 nM |  | 
2 | N=C(N)c1c[nH]c2cc(S(=O)(=O)N3CCC(Cc4ccccc4)CC3)ccc12 | 210 nM | 3300 nM | 1200 nM | 
3 | N=C(N)c1ccc2c(cnn2CC(=O)N2CCC(Cc3ccccc3)CC2)c1 | 140 nM | 2900 nM | > 6000 nM | 
4 | N=C(N)c1ccc2c(ccn2CC(=O)N2CCC(C(O)c3ccccc3)CC2)c1 (stereo not given) | > 21000 nM | 16000 nM | > 15000 nM | 
5 | COC(=O)/C=C/c1cn(CC(=O)N2CCC(Cc3ccccc3)CC2)c2ccc(C(=N)N)cc12 | 28 nM | 1200 nM | 280 nM | 
6 | N=C(N)c1ccc2c(ccn2CC(=O)N2CCC(Cc3ccccc3)CC2)c1 | 18 nM | 10300 nM | > 15000 nM | 0.8 mg/kg/h
7 | N=C(N)c1ccc2c(c1)c(CCO)cn2CC(=O)N1CCC(Cc2ccccc2)CC1 | 7 nM | 2400 nM | 310 nM | 
8 | N=C(N)c1ccc2c(ccn2CC(=O)N2CCC(C(=O)c3ccccc3)CC2)c1 | > 21000 nM | 9500 nM | > 15000 nM | 
9 | CC(=O)N[C@H](Cc1ccccc1)C(=O)N1CCC[C@H]1C(=O)N[C@@H](CCCN=C(N)N)B(O)O |  |  | 9 nM | 0.04 mg/kg/h
10 | N=C(N)c1ccc2c(c1)c(CC(=O)O)cn2CC(=O)N1CCC(Cc2ccccc2)CC1 | 19 nM | 3000 nM |  | 
11 | N=C(N)c1ccc2c(ccn2CC(=O)N2CCC(Cc3ccccc3F)CC2)c1 | 24 nM | 23000 nM |  | 
12 | N=C(N)c1ccc2c(c1)ncn2CC(=O)N1CCC(Cc2ccccc2)CC1 | 300 nM | 25000 nM |  | 
13 | COC(=O)Cc1cn(CC(=O)N2CCC(Cc3ccccc3)CC2)c2ccc(C(=N)N)cc12 | 7.4 nM | 400 nM | 140 nM | 
